Assay results as given in patent US5852008A, “Heteroatom substituted benzoyl derivatives that enhance synaptic response mediated by receptors” (The Regents of the University of California, priority 1995, dated 1998).
pEC50: −log10 of the molar value. Read-outs that look alike come from different tables or passages of the source.

How the values were obtained:
AMPA receptors = experiment: Field EPSP in rat hippocampal slices (field CA1): amplitude and area of AMPA receptor-mediated synaptic responses; format: cell-based, rat (Sprague-Dawley)
Description: The physiological effects of invention compounds can be tested in vitro with slices of rat hippocampus as follows. Excitatory responses (field EPSPs) are measured in hippocampal slices which are maintained in a recording chamber continuously perfused with artificial cerebrospinal fluid (ACSF).
To conduct these tests, the hippocampus was removed from anesthetized, 2 month old Sprague-Dawley rats and in vitro slices (400 micrometers thick) were prepared and maintained in an interface chamber at 35° C. using conventional techniques [see, for example, Dunwiddie and Lynch, J. Physiol. Vol. 276: 353-367 (1978)]. The chamber was constantly perfused at 0.5 ml/min with ACSF containing (in mM): NaCl 124, KCl 3, KH2 PO4 1.25, MgSO4 2.5, CaCl2 3.4, NaHCO3 26, glucose 10 and L-ascorbate 2. A bipolar nichrome stimulating electrode was positioned in the dendritic layer (stratum radiatum) of the hippocampal subfield CA1 close to the border of subfield CA3.
Current pulses (0.1 msec) through the stimulating electrode activate a population of the Schaffer-commissural (SC) fibers which arise from neurons in the subdivision CA3 and terminate in synapses on the dendrites of CA1 neurons. Activation of these synapses causes them to release the transmitter glutamate. Glutamate binds to the postsynaptic AMPA receptors which then transiently open an associated ion channel and permit a sodium current to enter the postsynaptic cell. This current results in a voltage in the extracellular space (the field excitatory postsynaptic potential or field "EPSP") which is recorded by a high impedance recording electrode positioned in the middle of the stratum radiatum of CA1.
For the experiments summarized in FIG. 1, the intensity of the stimulation current was adjusted to produce half-maximal EPSPs (typically about 1.5-2.0 mV). Paired stimulation pulses were given every 40 sec with an interpulse interval of 200 msec (see below). The field EPSPs of the second response were digitized and analyzed to determine amplitude, half-width, and response area. If the responses were stable for 15-30 minutes (baseline), test compounds were added to the perfusion lines for a period of about 15 minutes. The perfusion was then changed back to regular ACSF.
Paired-pulse stimulation was used since stimulation of the SC fibers, in part, activates interneurons which generate an inhibitory postsynaptic potential (IPSP) in the pyramidal cells of CA1. This feed forward IPSP typically sets in after the EPSP reaches its peak. It accelerates the repolarization and shortens the decay phase of the EPSP, and thus could partially mask the effects of the test compounds. One of the relevant features of the feed-forward IPSP is that it can not be reactivated for several hundred milliseconds following a stimulation pulse. This phenomenon can be employed to advantage to eliminate IPSP by delivering paired pulses separated by 200 milliseconds and using the second ("primed") response for data analysis.
These effects are mirrored in the field EPSP, as reported in the literature [see, for example, Staubli et al., Psychobiology supra; Xiao et al., Hippocampus supra; Staubli et al., Hippocampus Vol. 2: 49-58 (1992)].
The variables set forth in the table refer to the following generic structure: [drawing 33]

AMPA receptor = details: cited from earlier work
[1] = PET biodistribution of 11C-labelled Invention Compound II after i.p. injection
Text: To test the ability of invention compounds to pass the blood-brain barrier, Invention Compound II was labelled with carbon-11.
Radiolabelled Invention Compound II (see the table above) is synthesized by the following scheme (wherein the numbers in parenthesis refer to the quantity of reagent used, in millimoles): [drawing 34] wherein Ar is aryl (such as methylenedioxybenzene), Im is imidazole (thus, ImHCl is imidazole hydrochloride), and R is an alkyl or alkylene radical (so that R2 NH is, for example, piperidine). ^11 C-labelled CO2 is produced by cyclotron irradiation and subsequently used in the above-described synthetic scheme. The time to complete the synthesis is about […] ([…] the half-life of carbon-11). After purification of [^11 C]II on C18 Sep Pak, 260 μCi was diluted with 20 mg of nonradioactive II as carrier in a 1-ml solution of 23% propylene glycol and 10% ethanol in physiologically-buffered saline in order to simulate the dosage of 100 mg/Kg that was used in behavioral studies. The final 1 ml of solution was administered to a 200 g rat under halothane anesthesia (1.4-1.7% in oxygen) by intraperitoneal (i.p.) injection.
Biodistribution of the radiotracer in the body of the rat was monitored by a positron camera (Scanditronix PC2048-15B) and the time-activity curves were constructed using a Vax 3500 (Digital Equipment Corporation) and shown in FIG. 5.

[2] = percent increase in field EPSP amplitude; log dose/response; maximal response of 85% increase assumed where solubility was limiting; read-out: EC50 (field EPSP amplitude)
[3] = after i.p. injection, 100 mg/kg
[4] = read-out: EC50 (field EPSP amplitude); percent increase in field EPSP amplitude; log dose/response; maximal response of 85% increase assumed where solubility was limiting

Q: With CC1Oc2ccc(C(=O)N3CCCCC3)cc2O1 (racemic) [Invention Compound V, (R,S)-1-(2-methyl-1,3-benzodioxol-5-ylcarbonyl)-piperidine] as the molecule, how does the pEC50 (AMPA receptors; [2]) read?
A: Its pEC50 is 2.96.

Q: For COc1ccc(C(=O)N2CC[C@@H](O)C2=O)cc1 [(R)-1-p-anisoyl-3-hydroxy-2-pyrrolidinone], which “facilitation of AMPA receptor mediated responses” value (AMPA receptor; nootropics tested in slices) is on record?
A: The value was “facilitate AMPA receptor mediated responses”.

Q: With O=C(c1ccc2c(c1)OCO2)N1CCCCC1 [Invention Compound II, 1-(1,3-benzodioxol-5-ylcarbonyl)-piperidine] as the molecule, how does the pEC50 (AMPA receptors; [2]) read?
A: The pEC50 was 2.82.

Q: What about the “time of peak uptake in brain” value [1, 3] of the same molecule?
A: The value was “about 5 minutes”.

Q: And the “time of peak uptake in heart” value [1, 3]?
A: Its value is “about 5 minutes”.

Q: And the “time of peak uptake in liver” value [1, 3]?
A: Its value is “about 3 minutes”.

Q: And the “time of peak uptake in soft tissues” value [1, 3]?
A: The value was “about 17 minutes”.

Q: And the “passage through the blood-brain barrier” value ([1]; i.p.)?
A: The value was “passes freely through the blood-brain barrier”.

Q: What about the “brain distribution relative to head excluding the cranial cavity” value ([1]; rat, in vivo, ip) of the same molecule?
A: The value was “approximately equal to that of the head excluding the cranial cavity”.

Q: What about the “decline of levels in liver after peak” value ([1]; rat, in vivo, ip) of the same molecule?
A: Its value is “declined markedly for the first 5 minutes after peaking and then more gradually”.

Q: What about the “decline of levels in the other three tissues (heart, brain, soft tissue) after peak” value ([1]; rat, in vivo, ip) of the same molecule?
A: The value was “declined very gradually after peaking”.

Q: And the “entry into and residence in brain (target tissue)” value ([1]; rat, in vivo, ip)?
A: The value was “relatively rapid and stayed in the brain for an extended period”.

Q: And the “order of tissue uptake” value ([1]; rat, in vivo, ip)?
A: Its value is “liver showed the maximum uptake, followed by heart”.

Q: With O=C(c1ccc2c(c1)OCO2)N1CC=CCC1 [Invention Compound III, 1-(1,3-benzodioxol-5-ylcarbonyl)-1,2,3,6-tetrahydropyridine] as the molecule, how does the pEC50 (AMPA receptors; [2]) read?
A: The pEC50 was 3.10.

Q: With O=C1CCCC1C(=O)c1ccc2c(c1)OCO2 (centres unmarked) [Invention Compound IV] as the molecule, how does the pEC50 (AMPA receptors; [4]) read?
A: Its pEC50 is 3.05.

Q: With O=C(c1ccc2ocnc2c1)N1CC=CCC1 [Invention Compound IX] as the molecule, how does the pEC50 (AMPA receptors; [2]) read?
A: Its pEC50 is 2.40.

Q: With O=C(c1ccc2c(c1)OCO2)N1CCCC1 [Invention Compound VI, 1(1,3-Benzodioxol-5-ylcarbonyl)-pyrrolidine] as the molecule, how does the pEC50 (AMPA receptors; [2]) read?
A: Its pEC50 is 2.92.

Q: With O=C(c1ccc2c(c1)OCO2)N1CCCCCC1 [Invention Compound VII, 1-(1,3-benzodioxol-5-ylcarbonyl)-hexamethyleneimine] as the molecule, how does the pEC50 (AMPA receptors; [2]) read?
A: Its pEC50 is 2.40.

Q: With O=C(c1ccc2c(c1)OCCO2)N1CC=CC1 [Invention Compound VIII] as the molecule, how does the pEC50 (AMPA receptors; [2]) read?
A: The pEC50 was 2.52.

Q: With O=C(c1ccc2nccnc2c1)N1CC=CCC1 [Invention Compound XIII, 1-(quinoxalin-6-ylcarbonyl)-1,2,3,6-tetrahydropyridine] as the molecule, how does the pEC50 (AMPA receptors; [2]) read?
A: Its pEC50 is 4.30.

Q: With O=C(c1ccc2[nH]cnc2c1)N1CC=CCC1 [Invention Compound XII] as the molecule, how does the pEC50 (AMPA receptors; [2]) read?
A: Its pEC50 is 2.30.

Q: With O=C(c1ccc2nccnc2c1)N1CCCCC1 [Invention Compound XIV, 1-(quinoxalin-6-ylcarbonyl)-piperidine] as the molecule, how does the pEC50 (AMPA receptors; [2]) read?
A: The pEC50 was 3.52.

Q: With O=C(c1ccc2ncoc2c1)N1CC=CCC1 [Invention Compound XI] as the molecule, how does the pEC50 (AMPA receptors; [2]) read?
A: Its pEC50 is 2.52.

Q: With CN(C)c1ccc(C(=O)N2CC=CCC2)cc1 [Invention Compound XV, N-(4-dimethylamino)benzoyl-1,2,3,6-tetrahydropyridine] as the molecule, how does the pEC50 (AMPA receptors; [2]) read?
A: The pEC50 was 2.77.

Q: With O=C1CCCN1C(=O)c1ccc2c(c1)OCO2 [Invention Compound XVI] as the molecule, how does the pEC50 (AMPA receptors; [4]) read?
A: Its pEC50 is 2.70.

Q: Which aniracetam-like effects (AMPA receptor; metabolite of aniracetam) does the source give for COc1ccc(C(=O)NCCCC(=O)O)cc1 [anisoyl-GABA] here?
A: Its aniracetam-like effects is “no aniracetam-like effects”.
